Laboratory results taken from paper PMC5243837, “The Effect of Selective D- or N^α-Methyl Arginine Substitution on the Activity of the Proline-Rich Antimicrobial Peptide, Chex1-Arg20” (Frontiers in Chemistry, 2017).
Where two headings read alike, the source gives them in different places. Where a SMILES comes first, the peptide text is derived from it. [ ]: non-standard residue; d: D form. NMeR = CN[C@@H](CCCNC(=N)N)C(=O)O; Ac6c = NC1(C(=O)O)CCCCC1; Chex = not defined here

What was measured:
K. pneumoniae ATCC 13883 [1] = type: cell-based, Klebsiella pneumoniae; conditions: for Antibacterial activity, MIC: ATCC 13883; for Antibacterial activity against K. pneumoniae (in words): K. pneumoniae ATCC 13883 in MHB, compared with analog 1, Chex1-Arg20
Protocol: An antibacterial assay was undertaken to determine the minimal inhibitory concentration (MIC) as described previously (Li et al., [2015b]). The Gram-negative nosocomial bacterium, K. pneumoniae ATCC13883, was selected for testing the antibacterial activities of the Chex1-Arg20 analogs using 2.5 × 10^5 cells/ml in Mueller Hinton broth (MHB) at 37°C immediately prior to the determination of MIC.
Each Chex1-Arg20 analog was assayed against the nosocomial Gram-negative bacterium K. pneumoniae ATCC 13883. The results are shown in Table 2 in comparison with analog 1, Chex1-Arg20. […] This highlighted the importance of arginine-7 and its native L-configuration for characteristic antimicrobial activity.

[2] = cited from earlier work
K. pneumoniae ATCC 13883 [3] = conditions: previously reported, ref Li et al., 2015b; cited from earlier work
Source text: Table 2 Antibacterial activity, MIC (μM), of Chex1-Arg20 analogs against Gram-negative pathogen K. pneumoniae ATCC 13883. | column: 1^^*

Molecule | Antibacterial activity, MIC (K. pneumoniae ATCC 13883 [1]) | Antibacterial activity against K. pneumoniae (in words) (K. pneumoniae ATCC 13883 [1]) | Degradation sites in vivo [2] | Antibacterial activity, MIC (K. pneumoniae ATCC 13883 [3])
CC(C)C[C@H](NC(=O)[C@H](Cc1ccc(O)cc1)NC(=O)[C@@H]1CCCN1C(=O)[C@@H](CCCNC(=N)N)NC(=O)[C@@H]1CCCN1C(=O)[C@H](CCCCN)NC(=O)[C@H](CC(=O)O)NC(=O)[C@@H]1CCCN1C(=O)[C@H](CCCNC(=N)N)NC(=O)C1(N)CCCCC1)C(=O)N1CCC[C@H]1C(=O)N[C@@H](CCCNC(=N)N)C(=O)N1CCC[C@H]1C(=O)N[C@@H](CCCNC(=N)N)C(=O)N1CCC[C@H]1C(=O)N1CCC[C@H]1C(=O)N[C@@H](CCCNC(=N)N)C(=O)N1CCC[C@H]1C(=O)N[C@H](C(=O)N[C@@H](CCCNC(=N)N)C(N)=O)C(C)C [analog 2, DR7] (H-[Ac6c]RPDKP[dR]PYLPRPRPPRPVR-NH2; N-terminus assumed) | >100 µM | substantial loss of activity | – | –
CC(C)C[C@H](NC(=O)[C@H](Cc1ccc(O)cc1)NC(=O)[C@@H]1CCCN1C(=O)[C@H](N)CCCNC(=N)N)C(=O)N1CCC[C@H]1C(=O)N[C@@H](CCCNC(=N)N)C(=O)N1CCC[C@H]1C(=O)N[C@@H](CCCNC(=N)N)C(=O)N1CCC[C@H]1C(=O)N1CCC[C@H]1C(=O)N[C@@H](CCCNC(=N)N)C(=O)N1CCC[C@H]1C(=O)N[C@H](C(N)=O)C(C)C [analog 4, DR7(7–19)] (H-[dR]PYLPRPRPPRPV-NH2; N-terminus assumed) | >100 µM | no antibacterial activity | – | –
CC(C)C[C@H](NC(=O)[C@H](Cc1ccc(O)cc1)NC(=O)[C@@H]1CCCN1C(=O)[C@@H](CCCNC(=N)N)NC(=O)[C@@H]1CCCN1C(=O)[C@H](CCCCN)NC(=O)[C@H](CC(=O)O)NC(=O)[C@@H]1CCCN1C(=O)[C@H](CCCNC(=N)N)NC(=O)C1(N)CCCCC1)C(=O)N1CCC[C@H]1C(=O)N[C@@H](CCCNC(=N)N)C(=O)N1CCC[C@H]1C(=O)N[C@@H](CCCNC(=N)N)C(=O)N1CCC[C@H]1C(=O)N1CCC[C@H]1C(=O)N[C@@H](CCCNC(=N)N)C(=O)N1CCC[C@H]1C(=O)N[C@H](C(N)=O)C(C)C [analog 5, Chex1-Val19] (H-[Ac6c]RPDKP[dR]PYLPRPRPPRPV-NH2; N-terminus assumed) | 36.1 ± 0.6 µM | partially restored activity | – | –
CC(C)C[C@H](NC(=O)[C@H](Cc1ccc(O)cc1)NC(=O)[C@@H]1CCCN1C(=O)[C@H](CCCNC(=N)N)NC(=O)[C@@H]1CCCN1C(=O)[C@H](CCCCN)NC(=O)[C@H](CC(=O)O)NC(=O)[C@@H]1CCCN1C(=O)[C@H](CCCNC(=N)N)NC(=O)C1(N)CCCCC1)C(=O)N1CCC[C@H]1C(=O)N[C@@H](CCCNC(=N)N)C(=O)N1CCC[C@H]1C(=O)N[C@@H](CCCNC(=N)N)C(=O)N1CCC[C@H]1C(=O)N1CCC[C@H]1C(=O)N[C@@H](CCCNC(=N)N)C(=O)N1CCC[C@H]1C(=O)N[C@H](C(=O)N[C@H](CCCNC(=N)N)C(N)=O)C(C)C [analog 6, DR20] (H-[Ac6c]RPDKPRPYLPRPRPPRPV[dR]-NH2; N-terminus assumed) | 11.8 ± 0.1 µM | – | – | –
CC(C)C[C@H](NC(=O)[C@H](Cc1ccc(O)cc1)NC(=O)[C@@H]1CCCN1C(=O)[C@H](CCCNC(=N)N)NC(=O)[C@@H]1CCCN1C(=O)[C@H](CCCCN)NC(=O)[C@H](CC(=O)O)NC(=O)[C@@H]1CCCN1C(=O)[C@H](CCCNC(=N)N)NC(=O)C1(N)CCCCC1)C(=O)N1CCC[C@H]1C(=O)N[C@@H](CCCNC(=N)N)C(=O)N1CCC[C@H]1C(=O)N[C@@H](CCCNC(=N)N)C(=O)N1CCC[C@H]1C(=O)N1CCC[C@H]1C(=O)N[C@@H](CCCNC(=N)N)C(=O)N1CCC[C@H]1C(=O)N[C@H](C(=O)N(C)[C@@H](CCCNC(=N)N)C(N)=O)C(C)C [analog 7, mR20] (H-[Ac6c]RPDKPRPYLPRPRPPRPV[NMeR]-NH2; N-terminus assumed) | 14.5 ± 0.1 µM | – | – | –
CC(C)C[C@H](NC(=O)[C@@H]1CCCN1C(=O)[C@H](CCCNC(=N)N)NC(=O)[C@@H]1CCCN1C(=O)[C@H](CCCNC(=N)N)NC(=O)[C@@H]1CCCN1C(=O)[C@@H]1CCCN1C(=O)[C@H](CCCNC(=N)N)NC(=O)[C@@H]1CCCN1C(=O)[C@@H](NC(=O)[C@H](CCCNC(=N)N)NC(=O)C1(N)CCCCC1)C(C)C)C(=O)N[C@@H](Cc1ccc(O)cc1)C(=O)N1CCC[C@H]1C(=O)N[C@@H](CCCNC(=N)N)C(=O)N1CCC[C@H]1C(=O)N[C@@H](CCCCN)C(=O)N[C@@H](CC(=O)O)C(=O)N1CCC[C@H]1C(=O)N[C@@H](CCCNC(=N)N)C(N)=O [analog 8, reverse] (H-[Ac6c]RVPRPPRPRPLYPRPKDPR-NH2; N-terminus assumed) | >100 µM | no activity | – | –
A3-APO | – | – | degradation at positions Pro6-Arg7 and Val19-Arg20 | –
Chex1-Arg20 (Chex-RPDKPRPYLPRPRPPRPVR-NH2; reading uncertain) [analog 1, de novo designed proline-rich antimicrobial peptide, Chex-…-NH2] | – | – | – | 0.8 ± 0.1 µM
